This is an account of results in EP0232089B1, “Quinone amides, their production and use” (Takeda Chemical Industries, Ltd., priority 1986, dated 1987).

SMILES strings stand for the structures. Marks after values point to notes of the source that are not given here.

The test system of the experiment is Bronchoconstriction in guinea pigs induced by PAF. The experiment is described as follows: Platelet activating factor (PAF)-induced bronchoconstriction in guinea pigs (method of Konzett-Rossler). It is filed as in vivo. The settings on record: 8 animals. The protocol:
Platelet activating factor (PAF)-induced bronchoconstriction in guinea pigs
Bronchoconstriction in guinea pigs induced by PAF (1 µg/kg, intravenous injection) was measured by the method of Konzett-Rossler. The following procedure was the same as that in leukotriene D4(LTD4)-induced bronchoconstriction. Test drugs were orally administered as a 5% gum arabic solution one hour before administration of PAF. Table 2 Inhibitory action against bronchoconstriction in guinea pigs

The mark [1] stands for this setting: dose 5 mg/kg orally as 5% gum arabic solution one hour before PAF (1 µg/kg, intravenous injection).

Turning to `CC1=C(C)C(=O)C(C(CCCCCC(=O)N2CCN(CCc3ccccc3)CC2)c2ccccc2)=C(C)C1=O` (racemic) [Compound No. 18, 7-(3,5,6-trimethyl-1 ,4-benzoquinon-2-yl)-7-phenylheptanoic acid 4-(2-phenylethyl)-piperazinamide], under setting [1], the “% inhibition” value is 59.9* %.

For the compound `CC1=C(C)C(=O)C(C(CCCCCC(N)=O)c2ccccc2)=C(C)C1=O` (centres unmarked) [Compound No. 1, 7-(3,5,6-trimethyl-1,4-benzoquinon-2-yl)-7-phenylheptanamide], the “% inhibition” value reads like this: (dose 0.313 mg/kg orally as 5% gum arabic solution one hour before PAF (1 µg/kg, intravenous injection)) 49.7* %; (dose 1.25 mg/kg orally as 5% gum arabic solution one hour before PAF (1 µg/kg, intravenous injection)) 80.3** %; under setting [1], 100.0** %.

With `CC1=C(C)C(=O)C(C(CCCCCC(=O)NC(Cc2ccccc2)C(=O)O)c2ccccc2)=C(C)C1=O` (centres unmarked) [Compound No. 30], the “% inhibition” value under setting [1] was 72.1* %.
